Here are results for one compound from ChEMBL document CHEMBL5584353, “Design, Synthesis, and Biological Evaluation of Potent EZH2/LSD1 Dual Inhibitors for Prostate Cancer” (J Med Chem, 2024).

SMILES strings stand for the structures. The source made the active and inactive calls. The calls are words filed in the database; no cut-off is given here.

Series [1] is described as follows: Metabolic stability in Sprague-Dawley rat hepatocyte assessed as compound remaining at 20 uM incubated for 30 mins by HPLC-MS/MS analysis. Format: ADME, cell-based. The following applies: hepatocytes, read-out: Stability.
Series [2] can be described thus: Metabolic stability in Sprague-Dawley rat hepatocyte assessed as half life at 20 uM incubated for 60 mins by HPLC-MS/MS analysis. Format: ADME, cell-based. The settings on record: hepatocytes.
Series [3] can be described thus: Clearance in BALB/c mouse at 50 mg/kg,po measured upto 24 hrs by HPLC-MS/MS analysis. The settings on record: in vivo. In kind it is ADME, organism-based.
The nature of series [4]: Inhibition of LSD2 (unknown origin). Details: species or system Homo sapiens.
Series [5] is described as follows: Cytotoxicity against human HPNE cells incubated for 6 to 7 days by MTS assay. Format: toxicity, cell-based. The settings on record: time 6-7 day. In general terms: Formazan colour is commonly taken as a measure of viable cells.
Series [6] deals with CWR22R. The series can be described thus: Synergistic antitumor activity against human 22Rv1 cells xenografted in BALB/c mouse assessed as reduction in tumor growth at 80 mg/kg,ip administrated daily for 31 days in presence of enzalutamide relative to control. In kind it is functional, organism-based. The following applies: time 31.0 day. On the technique in general: A xenograft is tissue or cells of one species grown in another, often human tumour cells in immunodeficient mice.

A further series deals with NCI-H292. The series can be described thus: Antiproliferative activity against human NCI-H292 cells assessed as inhibition of cell growth incubated for 6 to 7 days by MTS assay. Format: functional, cell-based. The settings on record: time 6-7 day.
In the next series the test system is MOLM-13. The experiment in a line: Antiproliferative activity against human MOLM-13 cells assessed as inhibition of cell growth incubated for 6 to 7 days by MTS assay. Format: functional, cell-based. The settings on record: time 6-7 day.
Another series relates to MV4-11. The experiment in a line: Antiproliferative activity against human MV4-11 cells assessed as inhibition of cell growth incubated for 6 to 7 days by MTS assay. Format: functional, cell-based. The following applies: time 6-7 day.
Series [7] concerns CWR22R. The experiment in a line: Antimigratory activity in human 22Rv1 cells assessed as downregulation of N-cadherin expression at 3 to 10 uM incubated for 48 hrs by Western blotting analysis. In kind it is functional, cell-based. The following applies: dose 3-10 µM. In general terms: Immunoblotting shows a protein as a band on a membrane.
The target in series [8] is T1, Histone-lysine N-methyltransferase EZH1 (Homo sapiens, UniProt Q92800).
T1 sequence (Q92800 whole entry): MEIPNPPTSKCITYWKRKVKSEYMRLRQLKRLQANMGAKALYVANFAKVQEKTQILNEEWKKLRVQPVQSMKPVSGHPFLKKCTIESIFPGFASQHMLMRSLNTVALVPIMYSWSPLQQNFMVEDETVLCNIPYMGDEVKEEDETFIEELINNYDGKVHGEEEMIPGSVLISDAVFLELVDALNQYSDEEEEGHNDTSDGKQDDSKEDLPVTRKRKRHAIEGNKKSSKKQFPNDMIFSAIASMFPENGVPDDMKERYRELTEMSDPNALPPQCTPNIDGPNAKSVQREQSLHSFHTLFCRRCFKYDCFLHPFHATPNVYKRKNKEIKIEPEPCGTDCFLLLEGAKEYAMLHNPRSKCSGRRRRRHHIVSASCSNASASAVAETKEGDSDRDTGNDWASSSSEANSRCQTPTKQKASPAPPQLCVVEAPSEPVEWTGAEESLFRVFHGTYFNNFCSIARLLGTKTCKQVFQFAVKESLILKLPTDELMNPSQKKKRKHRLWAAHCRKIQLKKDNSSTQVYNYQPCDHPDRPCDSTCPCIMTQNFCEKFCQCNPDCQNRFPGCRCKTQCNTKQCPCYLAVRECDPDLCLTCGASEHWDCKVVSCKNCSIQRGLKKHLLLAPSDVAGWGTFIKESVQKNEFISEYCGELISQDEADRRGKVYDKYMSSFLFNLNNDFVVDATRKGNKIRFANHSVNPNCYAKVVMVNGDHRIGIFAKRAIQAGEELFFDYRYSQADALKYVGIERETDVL
The series can be described thus: Inhibition of EZH1 (unknown origin).

A short description of series [9]: Metabolic stability in Sprague-Dawley rat hepatocyte assessed as compound remaining at 20 uM incubated for 120 mins by HPLC-MS/MS analysis. In kind it is ADME, cell-based. The following applies: hepatocytes, read-out: Stability.
Series [10] in a line: Metabolic stability in Sprague-Dawley rat hepatocyte assessed as intrinsic clearance at 20 uM incubated for 60 mins by HPLC-MS/MS analysis. In kind it is ADME, cell-based. The settings on record: hepatocytes, 1 h.
Series [11] deals with CWR22R. The series can be described thus: Induction of apoptosis in human 22Rv1 cells assessed as upregulation of cleaved PARP expression incubated for 48 hr by Western blotting analysis. Format: functional, cell-based.
A short description of series [12]: Oral bioavailability in BALB/c mouse at 50 mg/kg measured upto 24 hrs by HPLC-MS/MS analysis. Format: ADME, organism-based. The following applies: in vivo.

As usually defined, the half-life is how long it takes for the measured level to halve. A word on the CL/F: it is the apparent clearance, not corrected for the fraction that reaches the circulation. As a reminder, the IC50 is the concentration needed to halve the response being measured. A high value points to weaker potency. As a reminder, the bioavailability is dose-corrected exposure relative to a reference, in per cent. Read a low bioavailability as little systemic uptake. For `CCN(c1cc(-c2ccc([C@@H]3C[C@H]3N(CC3CCOCC3)C(=O)OC(C)(C)C)cc2)cc(C(=O)NCc2c(C)cc(C)[nH]c2=O)c1C)C1CCOCC1` (racemic), the remaining at 0.5 h, 20 µM in series [1] turned out to be 93%. The half-life at 20 µM in [2] is 5.5 h. Moreover, the CL/F in series [3] is 20 mL/min/kg. In addition, the 50% inhibitory concentration (IC50) in series [4] is 16.6 µM; in series [8] it was 2.16 µM. Also, the Activity entry was “Non-Toxic” in series [5] and “Dose-Dependent Effect” in the series on CWR22R [11]. The outcome in the series with CWR22R [6], in the series with NCI-H292, with MOLM-13, with MV4-11 and in the series with CWR22R [7] was Active. In addition, in series [9], the remaining at 2 h, 20 µM was found to be 75.8%. The CLH in series [10] turned out to be 4 µL/min/mg. In [12], the bioavailability came to 32.9%.
